The values below come from article PMC11201866, “Antiproliferative effect of indeno[1,2-d]thiazolo[3,2-a]pyrimidine analogues on IL-6 mediated STAT3 and role of the apoptotic pathway in albino Wistar rats of ethyl carbamate-induced lung carcinoma: In-silico, In-vitro, and In-vivo study” (Cancer Cell International, 2024).

Like-named read-outs stand apart in the source and are kept apart here.

In data set [1] the test system is Human Lung Cancer Cell Line A-549. Description: In-vitro cell cytotoxicity (SRB) assay. It is filed as cell-based. The protocol: To determine the cytotoxicity potential of the synthesized compounds. All samples were sent to the ACTREC, Tata Memorial Centre, Mumbai, India. They followed the standard protocol for sample analysis of the synthesized compounds. Adriamycin (ADR) was selected as a standard at 10, 20, 40, and 80 µg/mL to screen for indeno [1, 2-d] thiazolo [3,2-a] pyrimidine analogues. GI50 growth inhibition of 50% was calculated using the [(Ti − Tz)/(C − Tz)] ×100% formula, where C, controlled growth; Tz, time zero growth; and Ti, test growth at four concentration levels in the presence of the drug.
LC50 = Concentration of drug causing 50% cell kill
TGI = Concentration of drug causing total inhibition of cell growth
GI50 = Concentration of drug causing 50% inhibition of cell growth

Data set [2] has as its system IL-2, IL-6, IL-10, and IL-1β. Description: Cytokine estimation (ELISA) in EC-induced LC rats. The class given is in vivo, albino Wistar rats. Particulars: 10 mg/kg p.o. for 15 days, vs CC group. The protocol: Six-week-old experimental male albino Wistar rats (100–120 g) were procured from the animal house facility of Babu Banarasi Das Northern India Institute of Technology Lucknow and approved by the Institutional Animal Ethical Committee (CPCSEA No. 809/PO/Re/S/03/CPCSEA) with approval no. BBDNIIT/IAEC/APR/2022/06. The animal welfare protocol and experiments were performed as per the CPCSEA guidelines for laboratory animals and ethics, Department of Animal Welfare, Government of India. They were randomly distributed into five groups of eight animals each. The experimental rats were acclimated under standard research laboratory conditions with free access to standard rat chow and water ad libitum. Group 1 (NC, normal control group): 0.25% CMC (2 mL/kg, p. o.), Group 2 (CC, carcinogen control/EC-exposed group): EC (0.375 mg/kg, four i.p. injections within a gap of three weeks between each dose over twelve weeks period), Group 3 (PC, positive control group): EC + 5-FU (10 mg/kg, i.p. for 15 days after EC induced LC), Group 4 (9B): EC + Compound 9B (10 mg/kg, p.o. for 15 days after EC induced LC), and Group 5 (12B): EC + Compound 12B (10 mg/kg, p.o. for 15 days after the induction of LC). At the end of the treatment, the animals were euthanized by cervical decapitation after anesthesia using a combination of diazepam and ketamine hydrochloride (5 mg/kg, and 100 mg/kg, i.m. respectively). […]

Data set [3] deals with IL-6, STAT-3, Bax, Bcl-2, Cyt-C, Caspase-9, and Caspase-3. Description: Western blot analysis of lung samples of EC-induced LC rats. The class given is in vivo, albino Wistar rats. The conditions noted are these: 10 mg/kg p.o. for 15 days; for Expression of IL-6, STAT-3, and Bcl-2 / Expression of caspases (Caspase-3 and Caspase-9): vs CC group. As for the experimental part: (§1) Six-week-old experimental male albino Wistar rats (100–120 g) were procured from the animal house facility of Babu Banarasi Das Northern India Institute of Technology Lucknow and approved by the Institutional Animal Ethical Committee (CPCSEA No. 809/PO/Re/S/03/CPCSEA) with approval no. BBDNIIT/IAEC/APR/2022/06. The animal welfare protocol and experiments were performed as per the CPCSEA guidelines for laboratory animals and ethics, Department of Animal Welfare, Government of India. They were randomly distributed into five groups of eight animals each. The experimental rats were acclimated under standard research laboratory conditions with free access to standard rat chow and water ad libitum. Group 1 (NC, normal control group): 0.25% CMC (2 mL/kg, p. o.), Group 2 (CC, carcinogen control/EC-exposed group): EC (0.375 mg/kg, four i.p. injections within a gap of three weeks between each dose over twelve weeks period), Group 3 (PC, positive control group): EC + 5-FU (10 mg/kg, i.p. for 15 days after EC induced LC), Group 4 (9B): EC + Compound 9B (10 mg/kg, p.o. for 15 days after EC induced LC), and Group 5 (12B): EC + Compound 12B (10 mg/kg, p.o. for 15 days after the induction of LC). At the end of the treatment, the animals were euthanized by cervical decapitation after anesthesia using a combination of diazepam and ketamine hydrochloride (5 mg/kg, and 100 mg/kg, i.m. respectively). The lung was excised immediately, rinsed in ice-cold saline, and stored at -80 °C for further study. Serum was collected and stored for further analysis.
Protein expression levels of IL-6 (pro-inflammatory), STAT-3 (pro-inflammatory), Bax (pro-apoptotic), Bcl-2 (anti-apoptotic), Cyt-C (pro-apoptotic), Caspase-9, and Caspase-3 (pro-apoptotic/executor caspase) were assessed by immunoblotting. Proteins were electrophoresed on sodium dodecyl sulphate polyacrylamide gel (SDS-PAGE) and probed to detect molecules of interest in the mixture. The membrane was developed with enhanced chemiluminescence ECL, and images were obtained using Chemidoc XRS+ (Bio-rad).
A general note: In western blotting, separated proteins are transferred to a membrane and probed.

Data set [4] relates to ethyl-carbamate (EC)- induced LC. Description: In-vivo antineoplastic study, EC-induced lung carcinoma (weight, lipid profile, oxidative markers, histopathology, SEM). Further details: species or system albino Wistar rats. The conditions noted are these: EC-induced LC rats; for Histopathological analysis of lung tissue (H&E): 10 mg/kg for 15 days; for Weight variation (change in body weight): 10 mg/kg for 15 days (9B, 12B p.o.; 5-FU i.p.); for Serum lipid profile (TC, TG, LDL, VLDL, HDL) / Oxidative changes (SOD, GSH, ProC, TBARs): 10 mg/kg p.o. for 15 days; for Oxidative changes (SOD, GSH, ProC, TBARs): lung tissue homogenate. As for the experimental part:
as §1
Change in body weight (gm) was measured on the initial and final day of the experiment, and percent (%) weight gain/loss was calculated.
Serum total cholesterol (TC), triglycerides (TG), and high-density lipoprotein (HDL) levels were measured by using lipid profile kits (Agappe Diagnostic Ltd., Kerala, India). In brief, the assay was performed according to the manufacturer’s instructions. Low-density lipoprotein (LDL) and very-low-density lipoprotein (VLDL) levels were estimated and calculated using Friedewald’s formula [24].
Biochemical parameters such as protein carbonyl (PC), superoxide dismutase (SOD), glutathione (GSH), and thiobarbituric acid reactive substances (TBARs) were estimated in 10% lung tissue homogenate using our previously standardized laboratory protocols.
Histopathological studies were conducted to determine intracellular changes in lung tissue. Tissue samples were stained with H&E (haemotoxyline and eosin) using a methodology established previously at our laboratory for histological analysis and observed under an optical microscope (Steindroff N-120, 40X).
Lung tissue samples of 2–4 mm thickness were sectioned, and the samples were prepared by fixation, washing, post-fixation, and dehydration according to the standardized procedures of our laboratory. Finally, the samples were mounted on aluminium stubs with adhesive tape and examined for morphological changes using SEM (JEOL JSM-6490LV).

The nature of data set [5]: Pharmacokinetic study in rat plasma using HPLC. The class given is in vivo, albino Wistar rats. The conditions noted are these: 10 mg/kg p.o.; for AUC(0-inf) / Cmax / MRT / Tmax / half-life: Wistar, po; for AUC(0-inf) / Cmax / MRT / Tmax / half-life / AUMC: rat plasma. The protocol: 9B and 12B compounds were orally administered at 10 mg/kg (p.o. dose obtained from acute toxicity studies) to rats, and blood was collected from the latetal tail vein at 0.083, 0.25, 0.5, 1, 2, 4, 8, 12, 16, 24, and 48 h. After collection, blood was centrifuged and plasma was separated, which was kept at -20 °C for further HPLC determination. Chromatographic separations were performed using a Shimadzu Prominence-I LC-2030 Plus equipped with HPLC and a photodiode array (PDA) detector. The mobile phase consisted of a gradient elution of 2:8, water: methanol, and a continuous flow rate of 1 mL/min in an RP-C18 column (5.0 µ particle sizes, 4.6 mm internal diameter, and 250 mm length) with different λmax of 310 and 320 nm, respectively, at 40 °C throughout the experiment. The column was washed using an elution solvent (water: methanol = 50:50) after each run, and the final output was analyzed using WinNonlin version 1.5.3 software.

For a further data set, the system named is albino Wistar rats. In words: Acute toxicity study (OECD 423). The class given is in vivo. Particulars: oral, 15 days, 5, 10, and 15 mg/kg; for Toxic effect: histology of lung, liver, kidney. As for the experimental part:
It is necessary to investigate the safety and efficacy of the synthesized compounds in vivo, which was performed as per the guidelines of the Organization for Economic Cooperation and Development guidelines 423 (OECD 423). The synthesized compounds were orally administered at doses of 5, 10, and 15 mg/kg body weight to albino Wistar rats for 15 days (n = 5), and the animals were observed every day for any toxic signs at various doses. Morphological and oxidative stress parameters were used to determine dose-related toxicity.

The mark [6] stands for this setting: Homo sapiens, A549 cell line, unit inferred, read-out: GI50 value.

Consider `COc1cccc2c1C(=O)c1c(O)c3c(c(O)c1C2=O)C[C@@](O)(C(=O)CO)C[C@@H]3O[C@H]1C[C@H](N)[C@H](O)[C@H](C)O1` [ADR, Adriamycin, reference compound], for which the “TGI (concentration of drug causing total inhibition of cell growth)” value in data set [1] (A-549 cells, SRB assay) is less than 10 µg/mL. Moreover, the GI50 in data set [1] (Homo sapiens, A549, A-549 cells, SRB assay, read-out: GI50 (concentration of drug causing 50% inhibition of cell growth)) is less than 10 µg/mL.
One may read the AUC(0-inf) as total exposure, with the tail of the curve extrapolated. Read a high AUC(0-inf) as more exposure. By Cmax is commonly meant the highest concentration seen after dosing. Usually MRT stands for a mean duration of stay, worked out from the concentration-time curve. The term Tmax denotes the time from dosing to the highest level. As a reminder, the half-life is the time in which the quantity being followed falls by half. In the case of `COc1ccc2c(c1)CC1=C2N=C2SC=CN2C1c1cc(OC)c(OC)c(OC)c1` (stereo not drawn) [Compound 9B, 8-methoxy-5-(3,4,5-trimethoxyphenyl)-5,6-dihydroindeno[1,2-d]thiazolo[3,2-a]pyrimidine], in data set [2], the “Levels of cytokine IL-1β, IL-2, IL-6, and IL-10” value is recorded as “significantly decreased”. In data set [3], the “Expression of IL-6, STAT-3, and Bcl-2” value is “decreased”; the “Expression of caspases (Caspase-3 and Caspase-9)” value is recorded as “increased”. In addition, in data set [1] (Homo sapiens, A549, A-549 cells, SRB assay, read-out: LC50 (concentration of drug causing 50% cell kill)), the LC50 was more than 80 µg/mL. In data set [1] (setting [6]), the GI50 was less than 20 µg/mL. Moreover, in data set [4], the “Histopathological analysis of lung tissue (H&E)” value (“Histopathological analysis” below) is “histopathological recovery of lung tissue architectures”; the “Weight variation (change in body weight)” value turned out to be 6.01 ± 1.08 gm; the “Serum lipid profile (TC, TG, LDL, VLDL, HDL)” value is given as “restored the alteration of the lipid profile”; the “Oxidative changes (SOD, GSH, ProC, TBARs)” value is “restoring the altered levels of SOD, GSH, ProC, and TBARs”. In data set [5], the AUC(0-inf) was determined as 288 µg·h/mL, the Cmax worked out at 30800 ± 1590 ng/mL, the mean residence time (MRT) is 10.6 ± 0.99 h and the time of peak concentration (Tmax) is 4 h. In data set [5], this molecule had a half-life of 7.95 h and an AUMC of 3028.82 µg.h^2/ mL. For the same molecule, in the data set on albino Wistar rats, the “Antioxidant markers SOD, CAT, GSH, and TBARs values” was “no change”; the Toxic effect result is given as “no toxic effect”.
Take `Clc1ccc(C2C3=C(N=C4SC=CN42)c2ccccc2C3)cc1` (stereo not drawn) [Compound 12B, 5-(4-chlorophenyl)-5,6-dihydroindeno[1,2-d]thiazolo[3,2-a]pyrimidine]: the “Levels of cytokine IL-1β, IL-2, IL-6, and IL-10” value in data set [2] is “significantly decreased”. Also, the “Expression of Bax and Cyt-C” value in data set [3] (12B compared with 9B) is on record as “higher expression with 12B treatment than with 9B treatment”. In addition, in data set [3], the “Expression of IL-6, STAT-3, and Bcl-2” value was “decreased”; the “Expression of caspases (Caspase-3 and Caspase-9)” value was “increased”. The GI50 in data set [1] (setting [6]) was less than 10 µg/mL. Also, in data set [4], the “Histopathological analysis” value was “histopathological recovery of lung tissue architectures”; the “Weight variation (change in body weight)” value was 17.52 ± 1.33 gm; the “Serum lipid profile (TC, TG, LDL, VLDL, HDL)” value was “restored the alteration of the lipid profile”; the “Oxidative changes (SOD, GSH, ProC, TBARs)” value was “restoring the altered levels of SOD, GSH, ProC, and TBARs”. Besides, in data set [5], the area under the curve AUC(0-inf) was determined as 436 ± 8.59 µg·h/mL, the Cmax came to 40200 ± 2060 ng/mL, the mean residence time MRT amounted to 10.4 ± 1.08 h and the Tmax amounted to 4 h. In data set [5], this molecule showed a half-life of 11.5 h and an AUMC of 4557.60 µg.h^2/ mL. In addition, the “Biological availability (in words)” value in data set [5] (rat, compared with 9B) is given as “good biological availability as compared to 9B”. In addition, in the data set on albino Wistar rats, the “Antioxidant markers SOD, CAT, GSH, and TBARs values” was “no change”; the Toxic effect result is given as “no toxic effect”.
With `O=c1[nH]cc(F)c(=O)[nH]1` [Compound 5-FU, 5-Fluorouracil, reference compound], in data set [4], the “Histopathological analysis” value is reported as “histopathological recovery of lung tissue architectures” and the “Weight variation (change in body weight)” value was determined as 7.21 ± 1.75 gm.
